{"source": "patent US6872408B2", "about": "“Method of treating bipolar disorders using deuterium-substituted carbonate” (priority 2001, dated 2005)", "origin": "cited, not measured here", "key": {"patients": {"tested_on": "patients", "details": "patients treated for mania"}, "biological clock": {"tested_on": "biological clock", "details": "in vivo"}, "deer mice": {"tested_on": "deer mice", "details": "increasing ratio of D2O to H2O in drinking water"}, "[1]": {"tested_on": "patients with bipolar disorder"}}}
{"compound": "CCCC(CCC)C(=O)O", "note": "[DEPAKOTE, valproic acid]", "values": [{"measurement": "side effect", "setting": "patients", "result": "frequently causes blood dyscrasias"}]}
{"compound": "[2H]O[2H]", "note": "[Deuterium oxide]", "values": [{"measurement": "effect on length of the biological clock", "setting": "biological clock", "result": "lengthen the biological clock"}, {"measurement": "spontaneous locomotor activity", "setting": "mouse", "result": "suppressed"}, {"measurement": "effect of D2O on the biological clock", "setting": "deer mice", "result": "dose dependent and reversible"}, {"measurement": "effect on the period and entrainment of the light-dark (LD) cycle", "setting": "mice", "result": "chronomutagenic effect"}]}
{"compound": "CCO", "note": "[ethanol]", "values": [{"measurement": "effect on length of the biological clock", "setting": "biological clock", "result": "lengthen the biological clock"}]}
{"compound": "[Li]", "note": "[lithium]", "values": [{"measurement": "time for effects to take affect", "setting": "[1]; patients with bipolar disorder", "result": "up to 2 weeks"}, {"measurement": "patients receiving beneficial effects", "setting": "[1]; patients with bipolar disorder prescribed lithium", "result": "up to 80%"}]}
{"compound": "CC(C)[C@@H]1NC(=O)[C@H](C)OC(=O)[C@@H](C(C)C)NC(=O)[C@@H](C(C)C)OC(=O)[C@H](C(C)C)NC(=O)[C@H](C)OC(=O)[C@@H](C(C)C)NC(=O)[C@@H](C(C)C)OC(=O)[C@H](C(C)C)NC(=O)[C@H](C)OC(=O)[C@@H](C(C)C)NC(=O)[C@@H](C(C)C)OC1=O", "note": "[valinomycin]", "values": [{"measurement": "effect on length of the biological clock", "setting": "biological clock", "result": "lengthen the biological clock"}]}
{"compound": "lithium salts", "values": [{"measurement": "effect on length of the biological clock", "setting": "biological clock", "result": "lengthen the biological clock"}]}
